Assay results published in patent publication EP0492113A2, “Herbicide resistant AHAS deletion mutants” (priority 1990, dated 1992).
Where “and” joins values, the source holds several entries; their conditions need not be identical. Identical values can stand only once.

Columns and labels:
[1] = tested on: selfed progeny of the transgenic tobacco plant (10-1) containing the Trp574 deletion mutation of Arabidopsis AHAS; assay: Postemergence spray of tobacco, selfed progeny of transgenic plant 10-1; type: in vivo; conditions: for plant growth: 25 days after spraying, Figure 2(a); for Tobacco Mean FW: (5 reps each): Transgenic Progeny, four and one-half weeks
Source text: (§1) All three photographs were taken 25 days after spraying. In all photographs, control plants (a wild-type herbicide sensitive tobacco cultivar, Wisconsin 38[W38]) are in the front row. • (a) W38 Control and 10-1 Self - W38 represents the control and 10-1 the selfed transgenic tobacco progeny. At 0 g/ha Pursuit®, both the W38 and the 10-1 look similar. […] 0 x 10-1 represents W38 as the maternal parent (0) and 10-1 as the paternal parent. The results are very similar to that seen in the 10-1 selfed photograph. • (c) W38 Control and 10-1 x 0 - W38 as previously described. 10-1 x 0 represents 10-1 as the maternal parent and W38 as the paternal parent (0). The results are very similar to that seen in the 10-1 selfed photograph except that in this photo segregation of the herbicide resistance trait can be seen in the 10-1 progeny.
(§2) In a more quantitative assay, seed of selfed progeny of the transgenic tobacco plant (10-1) containing the Trp574 deletion mutation of Arabidopsis AHAS as well as seeds of the susceptible parental cultivar "Wisconsin 38" are planted in Metro Mix 350™ in 5" Azalea pots. The seedlings are thinned to the single most vigorous seedling after 2 days. Eleven days later, these plants are sprayed postemergence with Pursuit® at 0, 10, 20, 40, 80 and 160 g/ha. Five plants of each tobacco type (transgenic and control) are sprayed per herbicide rate. Tween 20™ is added at 0.25 v/v to the herbicide solutions prior to spraying. The herbicide is applied with a laboratory belt sprayer at a rate of 400 L/ha at a distance 18" above the plants with a belt speed of 8.2 sec/rev and sprayer nozzle #65015E. Plant heights are measured 1, 2, 3, and 4 weeks after treatment, plant fresh weight data is collected at four and one-half weeks.

[2] = target: T1, AHAS produced by substitution of asparagine for serine at position 653 (pAC229) (Arabidopsis thaliana, UniProt P17597, S653N); type: biochemical; conditions: Ser653 to asparagine substitution; Figure 6
T1 construct: made in house; host or cells: E. coli MF2000

10-1 x 0 = assay: Tobacco seed assay on herbicide medium, 10-1 x 0; type: in vivo; conditions: 5 µM in medium; twenty seeds per dish; after three weeks
Experimental: (§3) Seeds resulting from transgenic plant 10-1 are also assayed for resistance to the imidazolinone Pursuit®. Seeds are plated onto medium containing Pursuit® at 0, 1.25, 2.5, 3.75, and 5.0 µM. Twenty seeds are plated per petri dish, with two dishes per treatment. Herbicide tolerance of seedlings is evaluated after three weeks. […]

W38 (wild-type) = assay: Tobacco seed assay on herbicide medium, W38; type: in vivo; conditions: after three weeks
Experimental: as §3

10-1 Selfed = assay: Tobacco seed assay on herbicide medium, 10-1 selfed; type: in vivo; conditions: 5 µM in medium; twenty seeds per dish; after three weeks
Experimental: as §3

[3] = tested on: Wisconsin 38[W38] wild-type herbicide sensitive tobacco cultivar; assay: Postemergence spray of tobacco, susceptible control; type: in vivo; conditions: for plant growth: 25 days after spraying, Figure 2(a); for Tobacco Mean FW: (5 reps each): Control, four and one-half weeks
Source text: as §1, §2

[4] = target: T2, Wild type Arabidopsis AHAS (Arabidopsis thaliana, UniProt P17597); assay: AHAS enzyme assay (expression in E. coli MF2000), wild type enzyme; type: biochemical; conditions: wild type (pAC201); Figures 4 and 5
T2 construct: made in house; host or cells: E. coli MF2000 (no endogenous AHAS), vector pKK233-2; ammonium sulfate fraction of the extract
T2 sequence (P17597 56-670): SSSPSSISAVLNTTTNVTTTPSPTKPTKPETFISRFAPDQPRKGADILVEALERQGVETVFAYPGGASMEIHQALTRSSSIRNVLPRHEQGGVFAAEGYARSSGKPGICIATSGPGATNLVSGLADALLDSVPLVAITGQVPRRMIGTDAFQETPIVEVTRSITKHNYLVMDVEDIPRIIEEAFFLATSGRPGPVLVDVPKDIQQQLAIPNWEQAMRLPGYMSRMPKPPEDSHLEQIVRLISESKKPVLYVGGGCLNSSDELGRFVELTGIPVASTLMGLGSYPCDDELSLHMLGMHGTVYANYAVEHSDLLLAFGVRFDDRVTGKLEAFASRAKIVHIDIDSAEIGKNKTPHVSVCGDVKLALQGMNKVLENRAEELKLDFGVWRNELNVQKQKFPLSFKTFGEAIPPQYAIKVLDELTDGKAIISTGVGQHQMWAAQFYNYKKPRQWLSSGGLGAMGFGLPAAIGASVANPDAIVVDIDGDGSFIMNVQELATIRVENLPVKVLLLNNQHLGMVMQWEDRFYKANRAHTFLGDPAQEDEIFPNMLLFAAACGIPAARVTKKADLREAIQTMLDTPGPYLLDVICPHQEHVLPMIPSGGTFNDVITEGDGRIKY
Experimental: AHAS enzyme assay (expression in E. coli) - The site directed mutants, pAC224 and pAC225, are utilized as templates for the generation of an E. coli based expression system. The insensitivity to herbicide is tested when the higher plant gene of interest is expressed in a bacterial strain devoid of any endogenous AHAS activity. To this end, the Nco1/Pst1 fragment of wild type Arabidopsis AHAS (pAC301), the Trp574-Leu substitution (pAC224) and the Trp574 deletion (pAC225) are subcloned into the Nco1/Pst1 site of the E. coli expression vector, pKK233-2 (purchased from Pharmacia). This expression plasmid contains an IPTG inducible promoter as well as a transcription termination sequence. Both regions surround an Nco1, HindIII and Pstl linker sequence that allows proper orientation of the gene of interest in relation to the bacterial promoter. Subcloning and ligation of the respective Ncol/Pstl fragments into Ncol/Pstl digested pKK233-2 DNA (ampicillin resistance) is as previously described. […] This bacterial strain is devoid of endogenous AHAS activity. Therefore, growth on a minimal media lacking isoleucine and valine (the end products of amino acid biosynthetic pathway of which the AHAS enzyme is involved) in an MF2000 strain transformed with either pAC224 (Trp574-Leu) or pAC225 (Trp del) requires the expression and function of the Arabidopsis gene in E. coli. […]

[5] = target: T3, Trp574-->Leu substitution mutant allele of the Arabidopsis AHAS (Arabidopsis thaliana, UniProt P17597, W574L); assay: AHAS enzyme assay (leaf tissue) of tobacco transformants 33-1 and 46-2; type: biochemical; conditions: leaf extracts of kanamycin resistant transformants 33-1 and 46-2
T3 construct: expressed in transfected cells; host or cells: leaf tissue of transgenic tobacco (Wisconsin 38 background), Agrobacterium LBA4404 / pBIN19 with the 5.5 kb XbaI genomic fragment
Experimental: (§4) AHAS enzyme assay (leaf tissue) - Shortly after transfer to the greenhouse, extracts each of the kanamycin resistant transformants are prepared and assayed for insensitivity to the imidazolinone Pursuit® herbicide. Acetohydroxyacid synthase is extracted and assayed as described in the previous section. […] This Trp574 deletion transformant is selfed and backcrossed to Wisconsin 38.
(§5) The extraction and assay for Arabidopsis AHAS in bacterial cells is essentially as described by Singh, et. al. (J. Chromatography 444: 251-261, 1988). The bacterial pellet is powered in liquid nitrogen and homogenized in 100mM potassium phosphate buffer (pH 7.5) containing 10mM pyruvate, 5mM magnesium chloride, 5mM Na₂-EDTA, 100um flavin adenine dinucleotide (FAD), 1mM valine, 1mM leucine, 10%(v/v) glycerol and 10mM cysteine. The homogenate is filtered through a nylon cloth (53uM mesh) and centrifuged at 25,000 x g for 20 minutes. The supernatant fraction is brought to 50% saturation with respect to ammonium sulfate and allowed to stand for 20-30 minutes on ice. […]
(§6) AHAS activity in the presence or absence of herbicide is measured by estimation of the product, acetolactate, after conversion by acid decarboxylation to acetoin. […] The acetoin formed is determined by incubating with creatine (0.17%) and 1-naphthol (1.7%) by the method of Westerfeld (J. Biol. Chem. 161: 495-502, 1945). […]

[6] = target: T4, mutant Arabidopsis AHAS allele having the Trp574 deletion (Arabidopsis thaliana, UniProt P17597, DEL574-574); assay: AHAS enzyme assay (leaf tissue) of tobacco deletion transformant 10-1; type: biochemical; conditions: leaf extract of kanamycin resistant deletion transformant 10-1
T4 construct: expressed in transfected cells; host or cells: leaf tissue of transgenic tobacco plant 10-1, Agrobacterium LBA4404 / pBIN19 with the 5.5 kb XbaI genomic fragment
Experimental: as §4, §5, §6

[7] = target: T5, Arabidopsis AHAS Trp574 deletion (pAC225) (Arabidopsis thaliana, UniProt P17597, DEL574-574); type: biochemical; conditions: increasing concentrations of herbicide, Figures 4 and 5
T5 construct: made in house; host or cells: E. coli MF2000, vector pKK233-2
Experimental: (§7) AHAS enzyme assay (expression in E. coli) - The site directed mutants, pAC224 and pAC225, are utilized as templates for the generation of an E. coli based expression system. The insensitivity to herbicide is tested when the higher plant gene of interest is expressed in a bacterial strain devoid of any endogenous AHAS activity. To this end, the Nco1/Pst1 fragment of wild type Arabidopsis AHAS (pAC301), the Trp574-Leu substitution (pAC224) and the Trp574 deletion (pAC225) are subcloned into the Nco1/Pst1 site of the E. coli expression vector, pKK233-2 (purchased from Pharmacia). This expression plasmid contains an IPTG inducible promoter as well as a transcription termination sequence. Both regions surround an Nco1, HindIII and Pstl linker sequence that allows proper orientation of the gene of interest in relation to the bacterial promoter. Subcloning and ligation of the respective Ncol/Pstl fragments into Ncol/Pstl digested pKK233-2 DNA (ampicillin resistance) is as previously described. The ligation reaction is transformed into the E. coli strain, MF2000 [ilvB800:mu-1, Bg132, ilvI15, thi-1, argE3, RPSL31, (ara-leu, iIvHI) 863, mtl-1, xyl-5 galK2, lacYI, recAl]. This bacterial strain is devoid of endogenous AHAS activity. […]

[8] = target: T6, Arabidopsis AHAS Trp574-Leu substitution (pAC224) (Arabidopsis thaliana, UniProt P17597, W574L); type: biochemical; conditions: increasing concentrations of herbicide, Figures 4 and 5
T6 construct: made in house; host or cells: E. coli MF2000, vector pKK233-2
Experimental: as §7

[9] = target: T7, AHAS produced by the Ser653 deletion (pAC230) (Arabidopsis thaliana, UniProt P17597, DEL653-653); type: biochemical; conditions: Figures 6 and 7
T7 construct: made in house; host or cells: E. coli MF2000

0 x 10-1 = assay: Tobacco seed assay on herbicide medium, 0 x 10-1; type: in vivo; conditions: 5 µM in medium; twenty seeds per dish; after three weeks
Experimental: as §3

[10] = 5 µM in medium, twenty seeds per dish

T1 sequence (P17597 56-670 S653N): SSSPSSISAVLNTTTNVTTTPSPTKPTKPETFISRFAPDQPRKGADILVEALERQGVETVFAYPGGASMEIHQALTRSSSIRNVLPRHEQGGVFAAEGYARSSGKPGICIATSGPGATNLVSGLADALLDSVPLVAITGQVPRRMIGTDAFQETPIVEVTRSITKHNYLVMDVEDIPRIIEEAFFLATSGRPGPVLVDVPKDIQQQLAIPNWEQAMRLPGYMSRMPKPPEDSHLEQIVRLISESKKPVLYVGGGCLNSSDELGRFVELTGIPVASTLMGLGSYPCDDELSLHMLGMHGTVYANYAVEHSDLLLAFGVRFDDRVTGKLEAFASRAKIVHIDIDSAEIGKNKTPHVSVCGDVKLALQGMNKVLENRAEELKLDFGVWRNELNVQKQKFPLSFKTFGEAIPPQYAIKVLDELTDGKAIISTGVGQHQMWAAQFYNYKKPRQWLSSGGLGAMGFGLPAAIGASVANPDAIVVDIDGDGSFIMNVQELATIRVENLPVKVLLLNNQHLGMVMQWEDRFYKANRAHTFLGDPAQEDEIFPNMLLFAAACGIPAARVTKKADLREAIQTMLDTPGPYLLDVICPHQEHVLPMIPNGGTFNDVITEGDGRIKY
T6 sequence (P17597 56-670 W574L): as the sequence (P17597 56-670 S653N) above, with W519L, N598S counted along it
T3 sequence (P17597 56-670 W574L): as the sequence (P17597 56-670 S653N) above, with W519L, N598S counted along it
T7 sequence (P17597 other isoform, or with tags, fused parts or gaps DEL653-653): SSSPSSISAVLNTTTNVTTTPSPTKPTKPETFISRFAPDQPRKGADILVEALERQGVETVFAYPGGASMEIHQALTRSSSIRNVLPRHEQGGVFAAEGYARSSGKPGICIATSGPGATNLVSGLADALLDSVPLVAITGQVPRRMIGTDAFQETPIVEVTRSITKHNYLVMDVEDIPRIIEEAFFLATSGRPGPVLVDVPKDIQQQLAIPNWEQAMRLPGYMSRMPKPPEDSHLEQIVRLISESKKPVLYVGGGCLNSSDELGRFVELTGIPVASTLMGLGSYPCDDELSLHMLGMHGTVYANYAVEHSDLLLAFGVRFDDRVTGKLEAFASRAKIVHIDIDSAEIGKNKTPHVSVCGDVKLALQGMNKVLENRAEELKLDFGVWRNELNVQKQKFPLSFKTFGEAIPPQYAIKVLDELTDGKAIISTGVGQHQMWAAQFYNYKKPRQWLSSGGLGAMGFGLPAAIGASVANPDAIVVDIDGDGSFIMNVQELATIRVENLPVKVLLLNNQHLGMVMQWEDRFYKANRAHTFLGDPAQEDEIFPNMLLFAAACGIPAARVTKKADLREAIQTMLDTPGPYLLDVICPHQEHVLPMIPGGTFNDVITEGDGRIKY
T4 sequence (P17597 other isoform, or with tags, fused parts or gaps DEL574-574): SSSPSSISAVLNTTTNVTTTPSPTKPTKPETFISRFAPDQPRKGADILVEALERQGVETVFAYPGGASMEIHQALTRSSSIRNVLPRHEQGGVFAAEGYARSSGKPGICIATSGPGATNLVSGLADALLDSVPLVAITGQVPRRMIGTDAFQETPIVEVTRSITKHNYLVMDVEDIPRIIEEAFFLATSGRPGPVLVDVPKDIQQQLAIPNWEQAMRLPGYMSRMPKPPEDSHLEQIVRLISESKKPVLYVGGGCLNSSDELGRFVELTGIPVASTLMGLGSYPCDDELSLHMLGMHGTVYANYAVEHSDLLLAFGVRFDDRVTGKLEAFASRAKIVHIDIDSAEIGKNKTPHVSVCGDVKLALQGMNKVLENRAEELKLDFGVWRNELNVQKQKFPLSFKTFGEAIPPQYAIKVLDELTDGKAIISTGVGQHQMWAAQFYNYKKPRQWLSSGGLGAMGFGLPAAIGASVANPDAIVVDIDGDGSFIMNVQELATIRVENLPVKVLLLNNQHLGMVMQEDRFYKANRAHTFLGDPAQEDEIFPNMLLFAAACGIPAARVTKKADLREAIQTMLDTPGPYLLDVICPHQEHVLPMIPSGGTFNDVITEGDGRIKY
T5 sequence (P17597 other isoform, or with tags, fused parts or gaps DEL574-574): as above

`CCc1cnc(C2=NC(C)(C(C)C)C(=O)N2)c(C(=O)O)c1` (stereo not drawn) [Pursuit®] was tested, and the plant growth ([1]; 80 g/ha post-emergence) was “slightly inhibited”, the plant growth ([1]; 160 g/ha post-emergence) was “clearly inhibited” and the “Tobacco Mean FW: (5 reps each)” value ([1]; 10 g/ha postemergence) was 36.4 g. The “Tobacco Mean FW: (5 reps each)” value ([1]; 20 g/ha postemergence) was 28.8 g, the “Tobacco Mean FW: (5 reps each)” value ([1]; 40 g/ha postemergence) was 20.9 g and the “Tobacco Mean FW: (5 reps each)” value ([1]; 80 g/ha postemergence) was 26.5 g. For the same molecule, the “Tobacco Mean FW: (5 reps each)” value ([1]; 160 g/ha postemergence) was 21.4 g, the “tolerance to post-emergence applications, relative to the concentration lethal to control tobacco plants” value ([1]; progeny from 10-1) was 4-8 x and the “herbicide tolerance, applied postemergence” value ([1]; rates 10 to 160 g/ha) was “high degree of tolerance”. The “sensitivity of AHAS enzyme to herbicide” value [2] was “insensitive to inhibition”, the “D (Damaged), number of seedlings per dish” value (“D (Damaged) … per dish” below) (10-1 x 0) was 9 and the “R (Resistant), number of seedlings per dish” value (“R (Resistant) … per dish” below) (10-1 x 0) was 0. The “S (Susceptible), number of seedlings per dish” value (from here on “S (Susceptible) … per dish”) (10-1 x 0) was 11, the “D (Damaged) … per dish” value (W38 (wild-type); [10]) was 0 and the “R (Resistant) … per dish” value (W38 (wild-type); [10]) was 0. For the same molecule, the “S (Susceptible) … per dish” value (W38 (wild-type); [10]) was 20, the “herbicide tolerance of seedlings” value (W38 (wild-type); control plants, lowest concentration, 1.25 µM in medium) was “exhibited herbicide sensitivity” and the “D (Damaged) … per dish” value (10-1 Selfed) was 6 and 11. The “R (Resistant) … per dish” value (10-1 Selfed) was 6, the plant growth ([3]; 10 g/ha post-emergence, compared to 10-1) was “slightly inhibited” and the “Tobacco Mean FW: (5 reps each)” value ([3]; 10 g/ha postemergence) was 8.1 g. The “Tobacco Mean FW: (5 reps each)” value ([3]; 20 g/ha postemergence) was 2.0 g, the “Tobacco Mean FW: (5 reps each)” value ([3]; 40 g/ha postemergence) was 0.8 g and the “Tobacco Mean FW: (5 reps each)” value ([3]; 80 g/ha postemergence) was 0.6 g. For the same molecule, the “Tobacco Mean FW: (5 reps each)” value ([3]; 160 g/ha postemergence) was 0.2 g, the “herbicide tolerance, applied postemergence” value ([3]; any of the rates tested (10 to 160 g/ha)) was “does not display herbicide tolerance” and the plant growth ([3]; starting at 20 g/ha post-emergence) was “almost completely inhibited”. For the same molecule, the “sensitivity of AHAS enzyme to herbicide” value [4] was “sensitive”, the “AHAS activity in the presence of herbicide” value [5] was “exhibit AHAS activity” and the “AHAS activity on addition of herbicide” value [6] was “exhibits insensitivity”. For the same molecule, the “sensitivity of AHAS enzyme to herbicide” value [7] was “insensitive”, the “sensitivity of AHAS enzyme to herbicide” value [8] was “insensitive” and the “sensitivity of AHAS enzyme to herbicide” value [9] was “highly resistant to inhibition”. For the same molecule, the “D (Damaged) … per dish” value (0 x 10-1) was 9 and 8, the “R (Resistant) … per dish” value (0 x 10-1) was 0 and the “S (Susceptible) … per dish” value (0 x 10-1) was 10 and 8.
